In one assay the target is human NK1 receptor (Homo sapiens, UniProt P25103). In words: NK1 receptor binding, [3H]substance P displacement, CHO cell membranes. Particulars: first value of the cell pKi NK1/NK3; human NK1 receptor, [3H]substance P.
Assay [1] concerns the target T1, Recombinant human NK3 (hNK3) receptor (Homo sapiens, UniProt P29371).
T1 construct: expressed in transfected cells
T1 sequence (P29371 1-465): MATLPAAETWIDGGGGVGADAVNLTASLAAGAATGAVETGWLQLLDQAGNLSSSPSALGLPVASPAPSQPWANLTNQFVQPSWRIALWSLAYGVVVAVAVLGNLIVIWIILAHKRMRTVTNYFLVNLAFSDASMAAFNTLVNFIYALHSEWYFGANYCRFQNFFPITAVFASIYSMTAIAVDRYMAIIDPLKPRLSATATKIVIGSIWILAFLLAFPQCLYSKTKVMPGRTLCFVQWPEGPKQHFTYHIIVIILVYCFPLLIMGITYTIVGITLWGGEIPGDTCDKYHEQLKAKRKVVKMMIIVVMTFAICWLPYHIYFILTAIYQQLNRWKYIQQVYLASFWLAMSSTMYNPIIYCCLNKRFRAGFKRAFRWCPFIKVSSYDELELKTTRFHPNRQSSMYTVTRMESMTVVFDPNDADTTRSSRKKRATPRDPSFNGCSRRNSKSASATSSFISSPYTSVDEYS
In words: NK3 receptor binding, [3H]SR142801 displacement, membrane preparations. Particulars: second value of the cell pKi NK1/NK3; hNK3 receptor, [3H]SR142801. The procedure, abridged: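 Buffer: Tris-HCl 50 mM pH 7.4, BSA 0.1%, MnCl2 4 mM, phosphoramidon 1 μM. ~2.5 μg membrane/well, 90 min RT. NSB with SB222200 (10 μM). Vacuum filtration over 0.3% PEI-treated GF/C, cold Tris/BSA washes, scintillation count; duplicates, ≥2 experiments.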

Each structure is given as a SMILES string.

human NK1 receptor, sequence (P25103 whole entry): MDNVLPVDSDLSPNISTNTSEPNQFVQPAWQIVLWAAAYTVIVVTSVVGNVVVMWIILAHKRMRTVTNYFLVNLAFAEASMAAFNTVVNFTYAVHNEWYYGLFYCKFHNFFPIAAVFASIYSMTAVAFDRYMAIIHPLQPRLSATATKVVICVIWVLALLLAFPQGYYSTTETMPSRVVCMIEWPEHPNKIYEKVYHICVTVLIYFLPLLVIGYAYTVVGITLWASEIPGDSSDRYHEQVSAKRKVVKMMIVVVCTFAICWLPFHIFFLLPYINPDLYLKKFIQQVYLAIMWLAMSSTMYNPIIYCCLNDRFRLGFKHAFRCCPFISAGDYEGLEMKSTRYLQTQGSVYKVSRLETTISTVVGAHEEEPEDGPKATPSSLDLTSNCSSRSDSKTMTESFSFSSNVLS

As for `Cc1cc(F)ccc1-c1cc(N2C[C@H](O)C[C@H]2CO)ncc1N(C)C(=O)C(C)(C)c1cc(F)cc(F)c1` [Example 29, (2S,4R)-2-(3,5-Difluoro-phenyl)-N-[4-(4-fluoro-2-methyl-phenyl)-6-(4-hydroxy-2-hydroxymethyl-pyrrolidin-1-yl)-pyridin-3-yl]-N-methyl-isobutyramide], the values for the inhibitory constant (Ki) (on human NK1 receptor; in assay [1]) were 1.55 nM and 3.55 nM, respectively.

For `COc1cc(Cl)cc(C(C)(C)C(=O)N(C)c2cnc(N3CCC[C@H]3CO)cc2-c2ccc(F)cc2C)c1` [Example 30, (S)-2-(3-Chloro-5-methoxy-phenyl)-N-[4-(4-fluoro-2-methyl-phenyl)-6-(2-hydroxymethyl-pyrrolidin-1-yl)-pyridin-3-yl]-N-methyl-isobutyramide], the values for the Ki (on human NK1 receptor; in assay [1]) were 3.72 nM and 3.55 nM, respectively.

Take `COc1cc(Cl)cc(C(C)(C)C(=O)N(C)c2cnc(N3C[C@H](O)C[C@H]3CO)cc2-c2ccc(F)cc2C)c1` [Example 31, (2S,4R)-2-(3-Chloro-5-methoxy-phenyl)-N-[4-(4-fluoro-2-methyl-phenyl)-6-(4-hydroxy-2-hydroxymethyl-pyrrolidin-1-yl)-pyridin-3-yl]-N-methyl-isobutyramide]: the Ki (commonly the equilibrium dissociation constant of an inhibitor or competing ligand from its target) is 0.977 nM on human NK1 receptor and 1.66 nM in assay [1].

Take `Cc1cc(C)cc(C(C)(C)C(=O)N(C)c2cnc(N3CCC[C@H]3CO)cc2-c2ccc(F)cc2C)c1` [Example 32, (S)-(3,5-Dimethyl-phenyl)-N-[4-(4-fluoro-2-methyl-phenyl)-6-(2-hydroxymethyl-pyrrolidin-1-yl)-pyridin-3-yl]-N-methyl-isobutyramide]: the “pKi NK1” value at human NK1 receptor is 8.51. Also, in assay [1], the “pKi NK3” value was 8.52.

Consider `Cc1cc(C)cc(C(C)(C)C(=O)N(C)c2cnc(N3C[C@H](O)C[C@H]3CO)cc2-c2ccc(F)cc2C)c1` [Example 33, (2S,4R)-2-(3,5-Dimethyl-phenyl)-N-[4-(4-fluoro-2-methyl-phenyl)-6-(4-hydroxy-2-hydroxymethyl-pyrrolidin-1-yl)-pyridin-3-yl]-N-methyl-isobutyramide], for which the Ki on human NK1 receptor is 1.17 nM; in assay [1], 3.02 nM.

Turning to `CN(C(=O)C(C)(C)c1cc(Cl)cc(OC(F)F)c1)c1cnc(N2CCC[C@H]2CO)cc1-c1ccccc1Cl` [Example 34, (S)-2-(3-Chloro-5-difluoromethoxy-phenyl)-N-[4-(2-chloro-phenyl)-6-(2-hydroxymethyl-pyrrolidin-1-yl)-pyridin-3-yl]-N-methyl-isobutyramide], the Ki at human NK1 receptor is 3.89 nM; in assay [1], 0.832 nM.

Regarding `CN(C(=O)C(C)(C)c1cc(Cl)cc(OC(F)F)c1)c1cnc(N2C[C@H](O)C[C@H]2CO)cc1-c1ccccc1Cl` [Example 35, (2S,4R)-2-(3-Chloro-5-difluoromethoxy-phenyl)-N-[4-(2-chloro-phenyl)-6-(4-hydroxy-2-hydroxymethyl-pyrrolidin-1-yl)-pyridin-3-yl]-N-methyl-isobutyramide], the inhibitory constant (Ki) on human NK1 receptor is 1.95 nM; in assay [1] it was 0.55 nM.

`Cc1ccccc1-c1cc(N2CCC[C@H]2CO)ncc1N(C)C(=O)C(C)(C)c1cc(Cl)cc(OC(F)F)c1` [Example 36, (S)-2-(3-Chloro-5-difluoromethoxy-phenyl)-N-[6-(2-hydroxymethyl-pyrrolidin-1-yl)-4-o-tolyl-pyridin-3-yl]-N-methyl-isobutyramide]: the Ki on human NK1 receptor is 4.27 nM; in assay [1], 0.708 nM.

For `Cc1ccccc1-c1cc(N2C[C@H](O)C[C@H]2CO)ncc1N(C)C(=O)C(C)(C)c1cc(Cl)cc(OC(F)F)c1` [Example 37, (2S,4R)-2-(3-Chloro-5-difluoromethoxy-phenyl)-N-[6-(4-hydroxy-2-hydroxymethyl-pyrrolidin-1-yl)-4-o-tolyl-pyridin-3-yl]-N-methyl-isobutyramide], the Ki on human NK1 receptor is 1.2 nM; in assay [1], 0.617 nM.

The values are drawn from patent publication US8404708B2, “Dual NK1/NK3 receptor antagonists” (Hoffmann-La Roche Inc., priority 2004, dated 2013).
